Reference: ChEMBL document CHEMBL4715908, “Design, synthesis, characterization, and anticancer activity of a novel series of O-substituted chalcone derivatives” (Bioorg Med Chem Lett, 2021)

Key:
[1] = system: CCRF-CEM; test: Cytotoxicity against human CCRF-CEM cells assessed as reduction in cell viability after 72 hrs by RRA assay; assay type: functional, cell-based
[2] = Selectivity index, ratio of IC50 for cytotoxicity against mouse AML12 cells to IC50 for cytotoxicity against human HepG2 cells
[3] = Cytotoxicity against human U87.deltaEGFR cells assessed as reduction in cell viability after 72 hrs by RRA assay; assay type: functional, cell-based; details: U87MG.deltaEGFR
[4] = Resistant index, ratio of IC50 for cytotoxicity against human U87MG.deltaEGFR cells to IC50 for cytotoxicity against human U87 cells; assay type: functional
[5] = system: HCT-116; test: Cytotoxicity against human HCT-116 p53-/- cells assessed as reduction in cell viability after 72 hrs by RRA assay; assay type: functional, cell-based; details: HCT-116, 72 h
[6] = Cytotoxicity against mouse AML12 cells assessed as reduction in cell viability after 72 hrs by RRA assay; assay type: cell-based; details: AML12, 72 h
[7] = system: U-87 MG; test: Cytotoxicity against human U87 cells assessed as reduction in cell viability after 72 hrs by RRA assay; assay type: functional, cell-based, U-87MG ATCC
[8] = Cytotoxicity against human MDA-MB-231/BCRP cells assessed as reduction in cell viability after 72 hrs by RRA assay; assay type: functional, cell-based
[9] = system: ADR5000 cell line; test: Cytotoxicity against human CEM/ADR5000 cells assessed as reduction in cell viability after 72 hrs by RRA assay; assay type: functional, cell-based; details: ADR5000, 72 h
[10] = system: HepG2; test: Cytotoxicity against human HepG2 cells assessed as reduction in cell viability after 72 hrs by RRA assay; assay type: functional, cell-based; details: HepG2, 72 h
[11] = Resistant index, ratio of IC50 for cytotoxicity against human MDA-MB-231/BCRP cells to IC50 for cytotoxicity against human MDA-MB-231 pcDNA cells; assay type: functional
[12] = system: MDA-MB-231; test: Cytotoxicity against human MDA-MB-231 pcDNA cells assessed as reduction in cell viability after 72 hrs by RRA assay; assay type: functional, cell-based; details: MDA-MB-231, 72 h
[13] = Resistant index, ratio of IC50 for cytotoxicity against human CEM/ADR5000 cells to IC50 for cytotoxicity against human CCRF-CEM cells; assay type: functional
[14] = system: HCT-116; test: Cytotoxicity against human HCT-116 p53+/+ cells assessed as reduction in cell viability after 72 hrs by RRA assay; assay type: functional, cell-based; details: HCT-116, 72 h
[15] = Resistant index, ratio of IC50 for cytotoxicity against human HCT-116 p53-/- cells to IC50 for cytotoxicity against human HCT-116 p53+/+ cells
[16] = system: DU-145; test: Cytotoxicity against human DU-145 cells assessed as reduction in cell viability after 72 hrs by SRB assay; assay type: functional, cell-based; details: DU-145, 72 h
[17] = system: HepG2; test: Cytotoxicity against human HepG2 cells assessed as reduction in cell viability after 72 hrs by SRB assay; assay type: functional, cell-based; details: HepG2, 72 h
[18] = system: HL-60; test: Cytotoxicity against human HL-60 cells assessed as reduction in cell viability after 72 hrs by SRB assay; assay type: functional, cell-based; details: HL-60, 72 h
[19] = system: THP-1; test: Cytotoxicity against human THP-1 cells assessed as reduction in cell viability after 72 hrs by SRB assay; assay type: functional, cell-based; details: THP-1, 72 h
[20] = system: MCF7; test: Cytotoxicity against human MCF7 cells assessed as reduction in cell viability after 72 hrs by SRB assay; assay type: functional, cell-based; details: MCF7, 72 h
[21] = Resistant index, ratio of IC50 for cytotoxicity against human HCT-116 p53+/+ cells to IC50 for cytotoxicity against human HCT-116 p53-/- cells; assay type: functional

SMILES | IC50 [1] | Ratio IC50 [2] | IC50 [3] | Ratio IC50 [4] | IC50 [5] | IC50 [6] | IC50 [7] | IC50 [8] | IC50 [9] | IC50 [10] | Ratio IC50 [11] | IC50 [12] | Ratio IC50 [13] | IC50 [14] | Ratio IC50 [15] | other results
C#CCOc1ccc(/C=C/C(=O)c2ccn(C)c2)cc1OC | > 50 µM |  |  |  |  |  |  |  |  |  |  |  |  |  |  | 
C#CCOc1ccc(C(CC(=O)c2cccc(C)c2)CC(=O)c2cccc(C)c2)cc1OC | > 50 µM |  |  |  |  |  |  |  |  |  |  |  |  |  |  | 
C#CCOc1ccc(/C=C/C(=O)c2cccc(OC)c2)cc1OC | 5.59 µM | 2.05 | 1.33 µM | 0.91 | 1.01 µM | 11.4 µM | 1.46 µM | 1.23 µM | 1.1 µM | 5.54 µM | 0.09 | 13.8 µM | 0.2 | 1.92 µM | 0.53 | 
C#CCOc1ccc(/C=C/C(=O)c2cccc(Br)c2)cc1OC | 15.2 µM | 1.24 | 4.16 µM | 1.61 | 1.9 µM | 12.5 µM | 2.59 µM | 3.09 µM | 2.28 µM | 10.1 µM | 0.88 | 3.5 µM | 0.15 | 2.9 µM | 0.66 | 
C#CCOc1ccc(/C=C/C(=O)c2ccc(CC=C(C)C)cc2)cc1OC | > 50 µM |  |  |  |  |  |  |  |  |  |  |  |  |  |  | 
C#CCOc1ccc(C(=O)/C=C/c2ccc(OCC=C)c(OC)c2)cc1CC=C | > 50 µM |  |  |  |  |  |  |  |  |  |  |  |  |  |  | 
COc1cccc2c1C(=O)c1c(O)c3c(c(O)c1C2=O)C[C@@](O)(C(=O)CO)C[C@@H]3O[C@H]1C[C@H](N)[C@H](O)[C@H](C)O1 [DOXORUBICIN] | 0.02 µM |  | 0.98 µM |  | 1.78 µM | 52.9 µM | 0.26 µM | 0.79 µM |  | 4.56 µM |  | 0.13 µM |  |  |  | 
C#CCOc1ccc(/C=C/C(=O)c2ccc(OC)c(OC)c2)cc1OC | 8.65 µM | 1.13 | 1.56 µM | 0.55 | 0.32 µM | 6.75 µM | 2.86 µM | 1.89 µM | 1.44 µM | 5.98 µM | 0.14 | 13.6 µM | 0.17 | 2.01 µM | 0.16 | 
C#CCOc1ccc(/C=C/C(=O)c2ccccc2C)cc1OC | 6.95 µM | 3.11 | 1.21 µM | 0.58 | 1.06 µM | 8.2 µM | 2.1 µM | 0.99 µM | 0.92 µM | 2.64 µM | 0.07 | 14.8 µM | 0.13 | 1.66 µM | 0.64 | 
C#CCOc1ccc(C(C)=O)cc1CC=C | 38.2 µM |  |  |  |  |  |  |  |  |  |  |  |  |  |  | 
C#CCOc1ccc(C=O)cc1OC | > 50 µM |  |  |  |  |  |  |  |  |  |  |  |  |  |  | 
C#CCOc1ccc(/C=C/C(=O)c2ccc3c(c2)OCO3)cc1OC | > 50 µM |  |  |  |  |  |  |  |  |  |  |  |  |  |  | 
C=CCOc1ccc(/C=C/C(=O)c2ccccc2C)cc1OC |  |  |  |  |  |  |  |  |  |  |  |  |  |  |  | IC50 [16]: 5.21 µM; IC50 [17]: 10.1 µM; IC50 [18]: 7.9 µM; IC50 [19]: 4.76 µM; IC50 [20]: 10.3 µM
C=CCOc1ccc(C=O)cc1OC | 14 µM | 1.46 | 6.97 µM | 0.93 | 8.02 µM | 15.3 µM | 7.5 µM | 7.53 µM | 3.48 µM | 10.5 µM | 0.5 | 15 µM | 0.25 | 5.77 µM | 1.39 | 
C#CCOc1ccc(/C=C/C(=O)c2cccn2C)cc1OC | > 50 µM |  |  |  |  |  |  |  |  |  |  |  |  |  |  | 
C#CCOc1ccc(/C=C/C(=O)c2ccc(C(C)C)cc2)cc1OC | 11.8 µM | 1.57 | 2.12 µM | 0.75 | 3.13 µM | 9.91 µM | 2.84 µM | 2.93 µM | 2.72 µM | 6.31 µM | 0.72 | 4.07 µM | 0.23 | 3.7 µM |  | Ratio IC50 [21]: 0.85
C=CCOc1ccc(/C=C\C(=O)c2ccc(OCC=C(C)C)c(CC=C)c2)cc1OC | > 50 µM |  |  |  |  |  |  |  |  |  |  |  |  |  |  | 
C#CCOc1ccc(C(CC(=O)c2cccc(Br)c2)CC(=O)c2cccc(Br)c2)cc1OC | > 50 µM |  |  |  |  |  |  |  |  |  |  |  |  |  |  | 
C#CCOc1ccc(/C=C/C(=O)c2ccc(C)cc2)cc1OC | > 50 µM |  |  |  |  |  |  |  |  |  |  |  |  |  |  | 
C#CCOc1ccc(/C=C/C(=O)c2cccc(C)c2)cc1OC | 8.82 µM | 2.24 | 1.97 µM | 1.09 | 1.06 µM | 11.3 µM | 1.8 µM | 1.77 µM | 1.38 µM | 5.03 µM | 0.87 | 2.03 µM | 0.16 | 1.38 µM | 0.77 | 
C=CCc1cc(C(C)=O)ccc1OCC=C(C)C | 16.2 µM | 1.23 | 12.2 µM | 0.94 | 14 µM | 18.1 µM | 12.9 µM | 11.9 µM | 5.25 µM | 14.7 µM | 0.67 | 17.9 µM | 0.32 | 10.6 µM | 1.31 | 
C#CCOc1ccc(/C=C/C(=O)c2ccc(-n3ccnc3)cc2)cc1OC | 15 µM | 2.36 | 1.08 µM | 0.77 | 0.67 µM | 12.7 µM | 1.41 µM | 1.74 µM | 1 µM | 5.39 µM | 0.86 | 2.03 µM | 0.07 | 0.78 µM | 0.86 | 
C=CCOc1ccc(/C=C/C(=O)c2ccc(OCC=C(C)C)c(CC=C)c2)cc1OC | > 50 µM |  |  |  |  |  |  |  |  |  |  |  |  |  |  | 
